Measurements from the supplement of paper PMC10307832.

Tests used:
Assay in all cases: relative viability (nuclei count vs DMSO), 5 days (fraction); higher = more cells survive
XMD8-85 + Pemetrexed = compound: CN1CCN(CC1)C2=CC(=C(C=C2)NC3=NC=C4C(=N3)N(C5=CC=CC=C5C(=O)N4C)C)OC [XMD8-85] + Nc1nc2[nH]cc(CCc3ccc(C(=O)N[C@@H](CCC(=O)O)C(=O)O)cc3)c2c(=O)[nH]1 [Pemetrexed] (partner 0.2 µM)
How it was run: (§1)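 Lung cancer cell lines were pin-tool dosed in 1536-well plates on the day after seeding, with either a lone drug or a fixed anchor-drug dose plus five library-drug doses (not always all listed) in √10 steps. Nuclei were counted on 4× images after 5 days. Relative viability is the ratio of treated-well to vehicle-well nuclei counts, with each value a median of duplicate plates.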

4EGI-1 + Decitabine = compound: O=C(O)C(Cc1ccccc1[N+](=O)[O-])=NNc1nc(-c2ccc(Cl)c(Cl)c2)cs1 (mixture of isomers) [4EGI-1] + Nc1ncn([C@H]2C[C@H](O)[C@@H](CO)O2)c(=O)n1 [Decitabine] (partner 2 µM)
How it was run: as §1

XMD8-85 + Palbociclib = compound: CN1CCN(CC1)C2=CC(=C(C=C2)NC3=NC=C4C(=N3)N(C5=CC=CC=C5C(=O)N4C)C)OC [XMD8-85] + CC(=O)c1c(C)c2cnc(Nc3ccc(N4CCNCC4)cn3)nc2n(C2CCCC2)c1=O [Palbociclib] (partner 0.5 µM)
How it was run: as §1

4EGI-1 + Alpelisib = compound: O=C(O)C(Cc1ccccc1[N+](=O)[O-])=NNc1nc(-c2ccc(Cl)c(Cl)c2)cs1 (mixture of isomers) [4EGI-1] + Cc1nc(NC(=O)N2CCC[C@H]2C(N)=O)sc1-c1ccnc(C(C)(C)C(F)(F)F)c1 [Alpelisib] (partner 2 µM)
How it was run: as §1

Cell Line	relative viability (XMD8-85 + Pemetrexed; first compound 0.08 µM)	relative viability (XMD8-85 + Pemetrexed; first compound 0.253 µM)	relative viability (XMD8-85 + Pemetrexed; first compound 0.8 µM)	relative viability (XMD8-85 + Pemetrexed; first compound 2.53 µM)	relative viability (XMD8-85 + Pemetrexed; first compound 8 µM)	relative viability (4EGI-1 + Decitabine; first compound 0.5 µM)	relative viability (4EGI-1 + Decitabine; first compound 1.581 µM)	relative viability (4EGI-1 + Decitabine; first compound 5 µM)	relative viability (4EGI-1 + Decitabine; first compound 15.81 µM)	relative viability (4EGI-1 + Decitabine; first compound 50 µM)	relative viability (XMD8-85 + Palbociclib; first compound 0.08 µM)	relative viability (XMD8-85 + Palbociclib; first compound 0.253 µM)	relative viability (XMD8-85 + Palbociclib; first compound 0.8 µM)	relative viability (XMD8-85 + Palbociclib; first compound 2.53 µM)	relative viability (XMD8-85 + Palbociclib; first compound 8 µM)	relative viability (4EGI-1 + Alpelisib; first compound 0.5 µM)	relative viability (4EGI-1 + Alpelisib; first compound 1.581 µM)	relative viability (4EGI-1 + Alpelisib; first compound 5 µM)	relative viability (4EGI-1 + Alpelisib; first compound 15.81 µM)	relative viability (4EGI-1 + Alpelisib; first compound 50 µM)
HCC-366	0.147	0.163	0.146	0.129	0.168	0.364	0.29	0.549	0.256	0.0833	0.316	0.298	0.375	0.291	0.196	0.642	0.364	0.399	0.5	0.331
HCC-827	0.284	0.251	0.266	0.254	0.301	0.263	0.31	0.344	–	0.219	0.505	0.472	0.424	0.505	0.467	1.07	0.957	0.897	–	0.85
HOP-62	0.307	0.358	0.349	0.251	0.247	0.272	0.199	0.215	0.202	0.183	0.512	0.463	–	0.378	0.246	1.13	–	1.12	1.13	0.745
IA-LM	–	–	–	–	–	–	–	–	–	–	–	–	–	–	–	0.916	0.647	0.586	0.149	0.0833
LC-2-ad	0.261	0.26	0.253	0.274	0.249	0.876	0.859	0.742	0.587	0.444	0.482	0.452	0.51	0.49	0.39	0.865	0.758	0.858	0.822	0.137
LCLC-97TM1	0.153	0.17	0.211	0.181	0.189	0.278	–	0.23	0.248	0.124	0.192	0.188	0.188	0.204	0.239	0.213	–	0.239	0.236	0.211
LCLC-103H	0.426	0.452	0.401	0.432	0.398	0.778	0.733	0.688	0.666	0.458	0.483	0.445	0.489	0.484	0.405	1.01	0.866	0.866	0.879	0.879
LK-2	0.322	0.289	0.282	0.212	0.173	0.273	–	0.318	0.315	0.166	0.554	0.778	0.592	0.491	0.668	1.22	–	1.12	1.21	0.897
LOU-NH91	0.281	0.333	0.311	0.295	0.378	0.841	–	0.815	0.658	0.686	0.536	0.496	0.503	0.534	0.514	0.814	–	0.726	0.466	0.538
LU99A	0.162	0.179	0.183	0.199	0.165	0.879	0.699	0.83	0.851	0.508	0.367	0.36	0.458	0.46	0.368	0.613	–	0.538	0.539	0.171
NCI-H522	0.762	0.916	1.01	1.08	0.825	0.666	0.63	0.693	0.679	0.63	1.09	1.03	0.822	0.737	0.648	–	–	–	–	–
NCI-H596	0.477	–	0.457	0.465	0.368	1.01	1.11	1.16	0.942	0.569	–	–	–	–	–	0.576	0.524	0.508	0.574	0.461
NCI-H727	–	–	–	–	–	0.731	0.854	0.858	0.808	0.606	–	0.689	0.6	0.6	–	0.676	0.54	0.625	0.478	0.366
NCI-H1299	–	–	–	–	–	–	–	–	–	–	–	–	–	–	–	1.03	1.08	0.989	0.955	1.04
NCI-H1563	0.718	0.809	0.67	0.778	0.631	–	–	–	–	–	–	–	–	–	–	0.998	0.884	0.983	0.906	0.697
NCI-H1648	–	0.693	0.826	0.765	0.692	0.462	0.501	0.518	0.537	0.416	0.251	0.261	0.225	0.258	0.288	–	–	–	–	–
NCI-H1650	0.376	0.384	0.384	0.306	0.294	0.37	–	0.421	0.256	0.293	0.296	0.317	0.318	0.353	0.193	–	–	–	–	–
NCI-H1703	–	–	–	–	–	–	–	–	–	–	–	–	–	–	–	0.414	0.305	0.387	0.338	0.381
NCI-H2228	0.334	0.319	0.343	0.398	0.237	–	–	–	–	–	0.651	0.572	0.828	0.844	0.35	0.664	0.672	0.82	0.61	0.177
NCI-H2342	0.808	0.805	0.891	0.828	0.775	0.757	0.704	0.742	0.737	0.731	0.445	0.561	0.503	0.544	0.533	–	–	–	–	–
SW 900	0.46	0.505	0.506	0.477	0.282	0.447	0.406	0.464	0.396	0.283	0.553	0.535	0.594	0.496	0.324	–	–	–	–	–
